Data reported in BindingDB's records for doi:10.1111/j.1747-0285.2008.00745.x (University of Connecticut, 2009).

What follows are compounds tested against T1, Dihydrofolate reductase (Candida glabrata (strain ATCC 2001 / BCRC 20586 / JCM 3761 / NBRC 0622 / NRRL Y-65 / CBS 138), UniProt Q6FPH0) (assay: Enzyme Inhibition Assay).
T1 sequence (Q6FPH0 whole entry): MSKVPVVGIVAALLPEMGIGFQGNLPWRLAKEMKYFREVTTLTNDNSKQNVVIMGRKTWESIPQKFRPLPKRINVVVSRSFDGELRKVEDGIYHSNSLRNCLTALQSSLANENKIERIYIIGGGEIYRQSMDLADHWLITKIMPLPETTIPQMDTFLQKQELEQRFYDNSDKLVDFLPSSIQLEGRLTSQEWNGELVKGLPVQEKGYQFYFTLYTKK
Method: Enzyme activity assay were performed by monitoring the rate of enzyme-dependent NADPH consumption at an absorbance of 340 nm over 5 min.

SMILES | IC50 [nM]
COc1cc(-c2c(C)cccc2C)cc(C(C)C#Cc2c(C)nc(N)nc2N)c1 (racemic) [Biphenyl antifolate, 6] | 5.5
COc1cc(-c2ccccc2C)cc(C(C)C#Cc2c(C)nc(N)nc2N)c1 (stereo unspecified) [5-{3-[3-methoxy-5-(2-methylphenyl)phenyl]but-1-yn-1-yl}-6-methylpyrimidine-2,4-diamine] | 7.3
COc1cc(-c2cc(C)cc(C)c2)cc([C@@H](C)C#Cc2c(C)nc(N)nc2N)c1 (racemic) [Biphenyl antifolate, 2] | 0.55

The remaining lines, values ahead:

IC50 [nM] | SMILES
6.4 | COc1ccc(-c2cc(OC)cc(C(C)C#Cc3c(C)nc(N)nc3N)c2)cc1 (racemic)
10 | COc1cc(-c2ccc(C(C)(C)C)cc2)cc(C(C)C#Cc2c(C)nc(N)nc2N)c1 (racemic) [Biphenyl antifolate, 24]
0.61 | COc1cc(-c2ccc(C)cc2)cc([C@@H](C)C#Cc2c(C)nc(N)nc2N)c1 (racemic)
